Drawing on PubChem BioAssay AID256 (DTP/NCI, 2004), this text covers T/C for three molecules.

“And” between values parts separate entries of the source, which are not always exact repeats. Identical values can stand only once. Inconclusive results and toxic doses are left out.

The experiment has as its system CD2F1 mice, L1210 leukemia ip, survival T/C. Briefly: NCI In Vivo Anticancer Drug Screen. Data for tumor model L1210 Leukemia (intraperitoneal) in CD2F1 (CDF1) mice. The following applies: higher = longer survival. An outline of the steps: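 Activity against a transplanted murine tumor was judged by comparing the compound group with a vehicle group. The outcome in the treated animals was divided by that in the controls.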

`NC(=O)c1cn(C2OC(CO)C(O)C2O)c2ncnc(N)c12` (stereo unspecified): the T/C reads like this: (endpoint: mean survival time, dose: 0.06 mg/kg/injection, schedule: Q01DX009 (ip), vehicle: acid diluted with saline) 117 % of control; (endpoint: mean survival time, dose: 0.06 mg/kg/injection, schedule: Q01DX009 (ip), vehicle: saline) 108 % of control; (endpoint: mean survival time, dose: 0.08 mg/kg/injection, schedule: Q## X008 (ip), vehicle: carboxymethylcellulose (CMC)) 117 % of control; (endpoint: mean survival time, dose: 0.13 mg/kg/injection, schedule: Q01DX009 (ip), vehicle: saline) 120 % of control and 121 % of control; (endpoint: mean survival time, dose: 0.13 mg/kg/injection, schedule: Q03HX008 (ip), vehicle: saline) 124 % of control; (endpoint: mean survival time, dose: 0.13 mg/kg/injection, schedule: Q03HX016 (ip), vehicle: saline) 123 % of control. Moreover, the T/C is 119 % of control (endpoint: mean survival time, dose: 0.13 mg/kg/injection, schedule: Q03HX024 (ip), vehicle: saline); 115 % of control (endpoint: mean survival time, dose: 0.2 mg/kg/injection, schedule: Q01DX005 (ip), vehicle: saline); 124 % of control (endpoint: mean survival time, dose: 0.25 mg/kg/injection, schedule: Q01DX005 (ip), vehicle: saline + alcohol); 122 % of control (endpoint: mean survival time, dose: 0.31 mg/kg/injection, schedule: Q## X002 (ip), vehicle: carboxymethylcellulose (CMC)); 114 % of control (endpoint: mean survival time, dose: 0.31 mg/kg/injection, schedule: Q## X008 (ip), vehicle: carboxymethylcellulose (CMC)); 123 % of control (endpoint: mean survival time, dose: 0.5 mg/kg/injection, schedule: Q01DX009 (ip), vehicle: saline sonified). Moreover, the T/C reads like this: (endpoint: mean survival time, dose: 0.5 mg/kg/injection, schedule: Q03HX024 (ip), vehicle: saline) 95 % of control; (endpoint: mean survival time, dose: 0.5 mg/kg/injection, schedule: Q04DX003 (ip), vehicle: saline) 122 % of control; (endpoint: mean survival time, dose: 0.63 mg/kg/injection, schedule: Q01DX001 (ip), vehicle: carboxymethylcellulose (CMC)) 123 % of control; (endpoint: mean survival time, dose: 0.63 mg/kg/injection, schedule: Q## X002 (ip), vehicle: carboxymethylcellulose (CMC)) 124 % of control; (endpoint: mean survival time, dose: 0.63 mg/kg/injection, schedule: Q## X008 (ip), vehicle: carboxymethylcellulose (CMC)) 91 % of control; (endpoint: mean survival time, dose: 1.0 mg/kg/injection, schedule: Q01DX001 (ip), vehicle: saline) 115 % of control and 119 % of control. Also, the T/C was 119 % of control (endpoint: mean survival time, dose: 1.0 mg/kg/injection, schedule: Q01DX007 (ip), vehicle: saline); 88 % of control and 95 % of control and 111 % of control (endpoint: mean survival time, dose: 1.0 mg/kg/injection, schedule: Q01DX009 (ip), vehicle: saline sonified); 93 % of control (endpoint: mean survival time, dose: 1.0 mg/kg/injection, schedule: Q01DX009 (oral), vehicle: saline); 122 % of control (endpoint: mean survival time, dose: 1.0 mg/kg/injection, schedule: Q04DX003 (ip), vehicle: saline); 117 % of control (endpoint: mean survival time, dose: 1.0 mg/kg/injection, schedule: Q08DX002 (ip), vehicle: saline); 121 % of control (endpoint: mean survival time, dose: 1.25 mg/kg/injection, schedule: Q01DX001 (ip), vehicle: carboxymethylcellulose (CMC)). In addition, the T/C is 114 % of control (endpoint: mean survival time, dose: 1.25 mg/kg/injection, schedule: Q## X002 (ip), vehicle: carboxymethylcellulose (CMC)); 109 % of control (endpoint: mean survival time, dose: 1.5 mg/kg/injection, schedule: Q01DX009 (ip), vehicle: saline with Tween-80); 117 % of control and 112 % of control (endpoint: mean survival time, dose: 2.0 mg/kg/injection, schedule: Q01DX001 (ip), vehicle: saline); 107 % of control (endpoint: mean survival time, dose: 2.0 mg/kg/injection, schedule: Q01DX001 (oral), vehicle: saline); 111 % of control (endpoint: mean survival time, dose: 2.0 mg/kg/injection, schedule: Q01DX009 (ip), vehicle: acid diluted with saline); 88 % of control and 93 % of control (endpoint: mean survival time, dose: 2.0 mg/kg/injection, schedule: Q01DX009 (ip), vehicle: saline sonified). Besides, the T/C (endpoint: mean survival time, dose: 2.0 mg/kg/injection, schedule: Q01DX009 (oral), vehicle: saline) is 97 % of control; the T/C (endpoint: mean survival time, dose: 2.0 mg/kg/injection, schedule: Q08DX002 (ip), vehicle: saline) is 119 % of control; the T/C (endpoint: mean survival time, dose: 2.5 mg/kg/injection, schedule: Q01DX001 (ip), vehicle: carboxymethylcellulose (CMC)) was 178 % of control; the T/C (endpoint: mean survival time, dose: 4.0 mg/kg/injection, schedule: Q01DX001 (ip), vehicle: saline) was 121 % of control and 124 % of control; the T/C (endpoint: mean survival time, dose: 4.0 mg/kg/injection, schedule: Q01DX001 (oral), vehicle: saline) was 112 % of control; the T/C (endpoint: mean survival time, dose: 4.0 mg/kg/injection, schedule: Q01DX005 (ip), vehicle: saline + alcohol) was 93 % of control. Moreover, the T/C (endpoint: mean survival time, dose: 4.0 mg/kg/injection, schedule: Q01DX009 (oral), vehicle: saline) is 98 % of control; the T/C (endpoint: mean survival time, dose: 4.0 mg/kg/injection, schedule: Q04DX003 (ip), vehicle: saline) is 101 % of control; the T/C (endpoint: mean survival time, dose: 4.0 mg/kg/injection, schedule: Q08DX002 (ip), vehicle: saline) was 120 % of control; the T/C (endpoint: mean survival time, dose: 8.0 mg/kg/injection, schedule: Q01DX001 (ip), vehicle: saline) is 113 % of control; the T/C (endpoint: mean survival time, dose: 8.0 mg/kg/injection, schedule: Q01DX001 (oral), vehicle: saline) is 101 % of control; the T/C (endpoint: mean survival time, dose: 8.0 mg/kg/injection, schedule: Q08DX002 (ip), vehicle: saline) is 88 % of control. Moreover, the T/C is 107 % of control (endpoint: mean survival time, dose: 16.0 mg/kg/injection, schedule: Q01DX001 (oral), vehicle: saline); 106 % of control (endpoint: mean survival time, dose: 125.0 micrograms/kg/injection, schedule: Q01DX006 (iv), vehicle: saline); 100 % of control (endpoint: mean survival time, dose: 125.0 micrograms/kg/injection, schedule: Q01DX Z (im), vehicle: saline); 101 % of control (endpoint: mean survival time, dose: 250.0 micrograms/kg/injection, schedule: Q01DX006 (iv), vehicle: saline); 101 % of control (endpoint: mean survival time, dose: 250.0 micrograms/kg/injection, schedule: Q01DX Z (im), vehicle: saline); 106 % of control (endpoint: mean survival time, dose: 500.0 micrograms/kg/injection, schedule: Q01DX006 (iv), vehicle: saline). In addition, the T/C was 107 % of control (endpoint: mean survival time, dose: 500.0 micrograms/kg/injection, schedule: Q01DX Z (im), vehicle: saline); 109 % of control (endpoint: mean survival time, dose: 1000.0 micrograms/kg/injection, schedule: Q01DX006 (iv), vehicle: saline); 103 % of control (endpoint: mean survival time, dose: 1000.0 micrograms/kg/injection, schedule: Q01DX Z (im), vehicle: saline); 112 % of control (endpoint: median survival time, dose: 2.0 mg/kg/injection, schedule: Q01DX009 (ip), vehicle: saline).
As to `COc1ccc(NC2=NCCS2)cc1`, the T/C runs as follows: (endpoint: mean survival time, dose: 100.0 mg/kg/injection, schedule: Q04DX003 (ip), vehicle: saline with Tween-80) 94 % of control; (endpoint: mean survival time, dose: 200.0 mg/kg/injection, schedule: Q04DX003 (ip), vehicle: saline with Tween-80) 101 % of control.
Regarding `CCC[CH2][Sn]1([CH2]CCC)[O]C2C(CO)OC(n3c(Br)c(C(N)=O)c4c(N)ncnc43)C2[O]1` (stereo unspecified), the T/C is, setting by setting: (endpoint: mean survival time, dose: 1.56 mg/kg/injection, schedule: Q01DX009 (ip), vehicle: distilled water + Tween-80) 100 % of control; (endpoint: mean survival time, dose: 3.13 mg/kg/injection, schedule: Q01DX009 (ip), vehicle: distilled water + Tween-80) 107 % of control.
